Structures are written as SMILES.

The first assay relates to MCF-7 breast cancer cells. The assay is described as follows: MTT cytotoxicity assay on MCF-7 cells. It counts as cell-based. As to conditions: Homo sapiens, MCF7, read-out: MCF-7 (IC50).
The IC50 is the concentration that inhibits the measured activity by half. Take `COc1ccc(NC(=O)C2=C(C)NC(C)=C(C(=O)Nc3ccc(OC)cc3OC)C2c2ccccc2)c(OC)c1` [HD-1, N ^3,N^5-Bis(2,4-dimethoxyphenyl)-2,6-dimethyl-4-phenyl-1,4-dihydropyridine-3,5-dicarboxamide]: the IC50 is 66.5 µM. Consider `COc1ccc(NC(=O)C2=C(C)NC(C)=C(C(=O)Nc3ccc(OC)cc3OC)C2c2ccc(Cl)cc2)c(OC)c1` [HD-2, 4-(4-Chlorophenyl)-N^3,N^5-bis(2,4-dimethoxyphenyl)-2,6-dimethyl-1,4-dihydropyridine-3,5-dicarboxamide], for which the IC50 is 51.4 µM.

On to `COc1ccc(NC(=O)C2=C(C)NC(C)=C(C(=O)Nc3ccc(OC)cc3OC)C2c2cccc(Cl)c2)c(OC)c1` [HD-3, 4-(3-Chlorophenyl)-N^3,N^5-bis(2,4-dimethoxyphenyl)-2,6-dimethyl-1,4-dihydropyridine-3,5-dicarboxamide], for which the IC50 worked out at 59.4 µM.

For the molecule `COc1ccc(NC(=O)C2=C(C)NC(C)=C(C(=O)Nc3ccc(OC)cc3OC)C2c2ccco2)c(OC)c1` [HD-4, N ^3,N^5-Bis(2,4-dimethoxyphenyl)-4-(furan-2-yl)-2,6-dimethyl-1,4-dihydropyridine-3,5-dicarboxamide], the IC50 amounted to 36 µM. Take `COc1ccc(NC(=O)C2=C(C)NC(C)=C(C(=O)Nc3ccc(OC)cc3OC)C2c2ccc(O)cc2)c(OC)c1` [HD-5, N ^3,N^5-Bis(2,4-dimethoxyphenyl)-4-(4-hydroxyphenyl)-2,6-dimethyl-1,4-dihydropyridine-3,5-dicarboxamide]: the IC50 was determined as 62.1 µM.

As to `COc1cc(NC(=O)C2=C(C)NC(C)=C(C(=O)Nc3cc(OC)c(Cl)cc3OC)C2c2ccccc2)c(OC)cc1Cl` [HD-6, N ^3,N^5-Bis(4-chloro-2,5-dimethoxyphenyl)-2,6-dimethyl-4-phenyl-1,4-dihydropyridine-3,5-dicarboxamide], the IC50 turned out to be 21.3 µM. Take `COc1cc(NC(=O)C2=C(C)NC(C)=C(C(=O)Nc3cc(OC)c(Cl)cc3OC)C2c2ccc(Cl)cc2)c(OC)cc1Cl` [HD-7, N ^3,N^5-Bis(4-chloro-2,5-dimethoxyphenyl)-4-(4-chlorophenyl)-2,6-dimethyl-1,4-dihydropyridine-3,5-dicarboxamide]: the IC50 came out at 16.8 µM. Turning to `COc1cc(NC(=O)C2=C(C)NC(C)=C(C(=O)Nc3cc(OC)c(Cl)cc3OC)C2c2cccc(Cl)c2)c(OC)cc1Cl` [HD-8, N ^3,N^5-Bis(4-chloro-2,5-dimethoxyphenyl)-4-(3-chlorophenyl)-2,6-dimethyl-1,4-dihydropyridine-3,5-dicarboxamide], the IC50 amounted to 18.3 µM. For `COc1cc(NC(=O)C2=C(C)NC(C)=C(C(=O)Nc3cc(OC)c(Cl)cc3OC)C2c2ccco2)c(OC)cc1Cl` [HD-9, N ^3,N^5-Bis(4-chloro-2,5-dimethoxyphenyl)-4-(furan-2-yl)-2,6-dimethyl-1,4-dihydropyridine-3,5-dicarboxamide], the IC50 was determined as 57.7 µM.

For `COc1cc(NC(=O)C2=C(C)NC(C)=C(C(=O)Nc3cc(OC)c(Cl)cc3OC)C2c2ccc(O)cc2)c(OC)cc1Cl` [HD-10, N ^3,N^5-Bis(4-chloro-2,5-dimethoxyphenyl)-4-(4-hydroxyphenyl)-2,6-dimethyl-1,4-dihydropyridine-3,5-dicarboxamide], the IC50 came to 39.6 µM. Turning to `COc1ccc(NC(=O)C2=C(C)NC(C)=C(C(=O)Nc3cc(OC)c(Cl)cc3OC)C2c2ccccc2)c(OC)c1` (stereo not shown) [HD-11, N ^3-(4-Chloro-2,5-dimethoxyphenyl)-N^5-(2,4-dimethoxyphenyl)-2,6-dimethyl-4-phenyl-1,4-dihydropyridine-3,5-dicarboxamide], the IC50 came out at 42.4 µM.

Take `COc1ccc(NC(=O)C2=C(C)NC(C)=C(C(=O)Nc3cc(OC)c(Cl)cc3OC)C2c2ccc(Cl)cc2)c(OC)c1` (stereo not shown) [HD-12, N ^3-(4-Chloro-2,5-dimethoxyphenyl)-4-(4-chlorophenyl)-N^5-(2,4-dimethoxyphenyl)-2,6-dimethyl-1,4-dihydropyridine-3,5-dicarboxamide]: the IC50 was 37.5 µM. Regarding `COc1ccc(NC(=O)C2=C(C)NC(C)=C(C(=O)Nc3cc(OC)c(Cl)cc3OC)C2c2cccc(Cl)c2)c(OC)c1` (stereo not shown) [HD-13, N ^3-(4-Chloro-2,5-dimethoxyphenyl)-4-(3-chlorophenyl)-N^5-(2,4-dimethoxyphenyl)-2,6-dimethyl-1,4-dihydropyridine-3,5-dicarboxamide], the IC50 was determined as 44.1 µM. Still for that read-out and setting: as for `COc1ccc(NC(=O)C2=C(C)NC(C)=C(C(=O)Nc3cc(OC)c(Cl)cc3OC)C2c2ccco2)c(OC)c1` (stereo not shown) [HD-14, N ^3-(4-Chloro-2,5-dimethoxyphenyl)-N^5-(2,4-dimethoxyphenyl)-4-(furan-2-yl)-2,6-dimethyl-1,4-dihydropyridine-3,5-dicarboxamide], the figure is 52.3 µM; as for `COc1ccc(NC(=O)C2=C(C)NC(C)=C(C(=O)Nc3cc(OC)c(Cl)cc3OC)C2c2ccc(O)cc2)c(OC)c1` (stereo not shown) [HD-15, N ^3-(4-Chloro-2,5-dimethoxyphenyl)-N^5-(2,4-dimethoxyphenyl)-4-(4-hydroxyphenyl)-2,6-dimethyl-1,4-dihydropyridine-3,5-dicarboxamide], 42.2 µM. As to `CS(=O)(=O)CCNCc1ccc(-c2ccc3ncnc(Nc4ccc(OCc5cccc(F)c5)c(Cl)c4)c3c2)o1` [Lapatinib, reference compound], the IC50 came to 2.02 µM.

The target of the next assay is EGFR^wt kinase (Homo sapiens, UniProt P00533). In words: EGFR^wt kinase inhibition assay.
Chain of EGFR^wt kinase (P00533 25-1210): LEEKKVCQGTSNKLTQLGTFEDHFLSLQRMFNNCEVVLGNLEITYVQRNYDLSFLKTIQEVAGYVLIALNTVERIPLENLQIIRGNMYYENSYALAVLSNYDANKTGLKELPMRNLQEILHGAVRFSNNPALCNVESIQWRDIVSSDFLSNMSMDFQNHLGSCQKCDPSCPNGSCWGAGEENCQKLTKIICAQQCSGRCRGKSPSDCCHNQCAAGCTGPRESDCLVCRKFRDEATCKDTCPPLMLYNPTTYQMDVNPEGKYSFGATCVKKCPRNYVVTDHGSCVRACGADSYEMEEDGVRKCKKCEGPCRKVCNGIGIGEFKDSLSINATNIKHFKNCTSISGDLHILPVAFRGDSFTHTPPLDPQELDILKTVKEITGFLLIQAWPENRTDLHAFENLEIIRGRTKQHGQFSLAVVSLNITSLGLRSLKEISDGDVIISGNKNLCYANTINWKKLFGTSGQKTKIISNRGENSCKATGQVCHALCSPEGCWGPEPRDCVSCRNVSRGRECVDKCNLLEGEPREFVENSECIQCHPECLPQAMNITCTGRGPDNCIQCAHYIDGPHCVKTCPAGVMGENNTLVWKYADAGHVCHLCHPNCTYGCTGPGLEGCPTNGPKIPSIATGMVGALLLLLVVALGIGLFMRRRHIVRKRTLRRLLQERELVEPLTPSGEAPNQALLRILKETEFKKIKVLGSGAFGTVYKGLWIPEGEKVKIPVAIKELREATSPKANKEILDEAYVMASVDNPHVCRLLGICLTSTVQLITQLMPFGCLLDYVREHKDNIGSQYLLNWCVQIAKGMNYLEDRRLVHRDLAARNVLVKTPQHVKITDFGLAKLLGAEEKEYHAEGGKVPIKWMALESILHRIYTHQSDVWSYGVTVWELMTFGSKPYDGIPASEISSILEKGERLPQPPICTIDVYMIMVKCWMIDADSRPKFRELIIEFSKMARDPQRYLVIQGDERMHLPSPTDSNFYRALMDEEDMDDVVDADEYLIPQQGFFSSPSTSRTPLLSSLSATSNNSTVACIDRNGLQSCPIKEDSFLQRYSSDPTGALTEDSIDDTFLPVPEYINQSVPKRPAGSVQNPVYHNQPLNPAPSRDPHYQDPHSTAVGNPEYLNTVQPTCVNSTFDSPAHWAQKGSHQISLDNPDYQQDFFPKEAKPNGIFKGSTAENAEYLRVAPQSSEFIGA
Conditions: not given
It counts as biochemical.
Molecule `COc1cc(NC(=O)C2=C(C)NC(C)=C(C(=O)Nc3cc(OC)c(Cl)cc3OC)C2c2ccccc2)c(OC)cc1Cl` [HD-6, N ^3,N^5-Bis(4-chloro-2,5-dimethoxyphenyl)-2,6-dimethyl-4-phenyl-1,4-dihydropyridine-3,5-dicarboxamide] yielded an IC50 of 0.0305 ± 0.00148 µM.

Turning to `COc1cc(NC(=O)C2=C(C)NC(C)=C(C(=O)Nc3cc(OC)c(Cl)cc3OC)C2c2ccc(Cl)cc2)c(OC)cc1Cl` [HD-7, N ^3,N^5-Bis(4-chloro-2,5-dimethoxyphenyl)-4-(4-chlorophenyl)-2,6-dimethyl-1,4-dihydropyridine-3,5-dicarboxamide], the IC50 was determined as 0.0265 ± 0.00142 µM. Regarding `COc1cc(NC(=O)C2=C(C)NC(C)=C(C(=O)Nc3cc(OC)c(Cl)cc3OC)C2c2cccc(Cl)c2)c(OC)cc1Cl` [HD-8, N ^3,N^5-Bis(4-chloro-2,5-dimethoxyphenyl)-4-(3-chlorophenyl)-2,6-dimethyl-1,4-dihydropyridine-3,5-dicarboxamide], half-maximal inhibition (IC50) was put at 0.0159 ± 0.0012 µM.

Values taken from paper PMC11002980 (RSC Advances, 2024).
